SMILES strings stand for the structures.

One test concerns ornithine decarboxylase (ODC).
Experiment: not given
The following applies: literature statement in words; 12-O-tetradecanoylphorbol-13-acetate (TPA) as inducer; cited from earlier work.
Consider `CC1=C(/C=C/C(C)=C/C=C/C(C)=C/C(=O)O)C(C)(C)CCC1` [Retinoic acid], for which the “inhibition of TPA induction of ODC activity” value is reported as “inhibits this induction of ODC activity by TPA”.

A further test has as its system ornithine decarboxylase (ODC). As to the kind of experiment: ODC assay: inhibition of TPA induction of ornithine decarboxylase. The class given is biochemical. The following applies: concentration of the test compound which causes 80% inhibition in the ODC assay; TPA-induced ODC. An excerpt: The retinoic acid-like activity of these compounds is confirmed through the classic measure of retinoic acid activity involving the effects of retinoic acid on ornithine decarboxylase. The original work on the correlation between retinoic acid and decrease in cell proliferation was done by Verma & Boutwell, Cancer Research, 1977, 37, 2196-2201. That reference discloses that ornithine decarboxylase (ODC) activity increased precedent to polyamine biosynthesis. It has been established elsewhere that increases in polyamine synthesis can be correlated or associated with cellular proliferation. Thus, if ODC activity could be inhibited, cell hyperproliferation could be modulated. Although all cases for ODC activity increases are unknown, it is known that 12-O-tetradecanoylphorbol-13-acetate (TPA) induces ODC activity. […] Activity of exemplary compounds of the present invention in the above-described ODC assay is disclosed in Table 2 which provides the IC80 concentration for the respective exemplary compound. ("IC80 " is that concentration of the test compound which causes 80% inhibition in the ODC assay)
The molecule `COC(=O)c1ccc(C=Nc2ccc3c(c2)C(C)(C)CCC3(C)C)cc1` [Compound 1] had an IC80 conc of 14.5 nmols.

`CCOC(=O)c1ccc(C=Nc2cc3c(cc2C)C(C)(C)CCC3(C)C)cc1` [Compound 6, N-(5,6,7,8-Tetrahydro-3,5,5,8,8-pentamethyl)-2-naphthalenyl 4-ethoxycarbonyl benzaldimine] returned an IC80 conc of 293 nmols.

Molecule `CCOC(=O)c1ccc(N=Cc2cc3c(cc2C)C(C)(C)CCC3(C)C)cc1` [Compound 11, N-(4'-Ethoxycarbonyl) phenyl-2-(5,6,7,8-tetrahydro-3,5,5,8,8-pentamethyl) naphthalene-2-carboxaldehyde imine] returned an IC80 conc of 3.5 nmols.

`CCOC(=O)c1ccc(N=Cc2ccc3c(c2)C(C)(C)CCC3(C)C)cc1` [Compound 9, N-(4'-Ethoxycarbonyl)phenyl 5,6,7,8-tetrahydro-5,5,8,8-tetramethyl,naphthalene-2-carboxaldehyde imine] came in with an IC80 conc of 9.6 nmols.

Regarding `CCOC(=O)c1ccc(C=Nc2ccc3c(c2)C(C)(C)CCC3(C)C)nc1` [Compound 7, Ethyl 6-(N-5,6,7,8-tetrahydro-5,5,8,8-tetramethyl-2-naphthalenyl) 3-ethoxycarbonyl-pyridine-6-carboxaldehyde imine], the IC80 conc was over 30 nmols.

The molecule `CCOC(=O)c1ccc(C=Nc2ccc3c(c2)C(C)(C)CCC3(C)C)cc1` [Compound 4, N-(5,6,7,8-Tetrahydro-5,5,8,8-tetramethyl)-2-naphthalenyl 4-ethoxycarbonyl benzaldimine] yielded an IC80 conc of 2.5 nmols.

`CCOC(=O)c1ccc(C(C)=Nc2ccc3c(c2)C(C)(C)CCC3(C)C)cc1` [Compound 5, N-(5,6,7,8-Tetrahydro-5,5,8,8-tetramethyl)-2-naphthalenyl 4-ethoxycarbonyl acetophenone imine] came in with an IC80 conc of 5.5 nmols.

Molecule `CCOC(=O)c1ccc(N=Cc2ccc3c(c2)C(C)(C)CC(C)(C)O3)cc1` [Compound 10, N-(4'-Ethoxycarbonyl) phenyl 2,2,4,4-tetramethyl-chroman-6-carboxaldehyde imine] showed an IC80 conc of 44.0 nmols.

The record behind these values is patent publication US5498755A, “Disubstituted aryl and heteroaryl imines having retinoid-like biological activity” (priority 1994, dated 1996).
